Drawing on patent US7507727B2, “Substituted quinobenzoxazine analogs and methods of using thereof” (Cylene Pharmaceuticals, Inc., priority 2003, dated 2009), this text covers IC50 for 43 compounds.

The target of one experiment is c-Myc template DNA (c-myc quadruplex). The experiment can be described thus: Quadruplex binding / stop assay (Taq polymerase arrest, capillary electrophoresis). As to conditions: read-out: S DATA; Table 1D, stop assay data.
Consider `CN1CCN(CCCNc2c(F)cc3c(=O)c(C(=O)NCCCCN)cn4c3c2Oc2ccccc2-4)CC1` [compound 1579], for which the IC50 was above 15 µM. The same measure, in the same setting: the same measure for `CC1(C)CC(NC(=O)c2cn3c4c(c(N5CCC(NC(=O)OC(C)(C)C)C5)c(F)cc4c2=O)Oc2ccccc2-3)CC(C)(C)N1` (stereo not shown) [compound 1591]: above 15 µM; for `CN1CCCC1CCNC(=O)c1cn2c3c(c(NCc4ccco4)c(F)cc3c1=O)Oc1cc3ccccc3cc1-2` (stereo not shown) [compound 1755]: 4.2 µM; for `CCCCOCCCNC(=O)c1cn2c3c(c(N4CCC(N)C4)c(F)cc3c1=O)Oc1cc3ccccc3cc1-2` (stereo not shown) [compound 1692]: above 15 µM. `CN1CCCC1CCNC(=O)c1cn2c3c(c(N4CCC(c5ccccn5)C4)c(F)cc3c1=O)Oc1cc3ccccc3cc1-2` (stereo not shown) [compound 1507]: the IC50 was determined as 0.75 µM. With `CN1CCCC1CCNC(=O)c1cn2c3c(c(NCC4OCCO4)c(F)cc3c1=O)Oc1cc3ccccc3cc1-2` (stereo not shown) [compound 1745], the IC50 is above 15 µM.

On to `CN1CCCC1CCNC(=O)c1cn2c3c(c(NCc4ccccc4N4CCOCC4)c(F)cc3c1=O)Oc1cc3ccccc3cc1-2` (stereo not shown) [compound 1511], for which the IC50 is 1.75 µM. The same measure, in the same setting: the same measure for `COc1ccccc1CCNc1c(F)cc2c(=O)c(C(=O)NCCC3CCCN3C)cn3c2c1Oc1cc2ccccc2cc1-3` (stereo not shown) [compound 1684]: above 15 µM; for `CN1CCCC1CCNC(=O)c1cn2c3c(c(NCCCN)c(F)cc3c1=O)Oc1cc(Cl)ccc1-2` (stereo not shown) [compound 1809]: above 15 µM; for `CC(C)N1CCN(c2c(F)cc3c(=O)c(C(=O)NCC(C)(C)CN(C)C)cn4c3c2Oc2ccccc2-4)CC1` [compound 1568]: above 15 µM. As for `CN(CCCNc1c(F)cc2c(=O)c(C(=O)NCCC3CCCN3C)cn3c2c1Oc1cc2ccccc2cc1-3)c1ccccc1` (stereo not shown) [compound 1503], the IC50 was 1.75 µM. On to `CN1CCCC1CCNc1ccc2c(=O)c(C(=O)NCCN3CCCC3)cn3c2c1Oc1cc2ccccc2cc1-3` (stereo not shown) [compound 1522], for which the IC50 was 0.75 µM. Same read-out and setting: the same measure for `O=C(NCCN1CCCC1)c1cn2c3c(c(N4CCN(C(=O)N5CCC[C@H]5C(=O)C(F)(F)F)CC4)c(F)cc3c1=O)Oc1cc(Cl)ccc1-2` [compound 1824]: 9.4 µM.

`CN1CCCC1CCNC(=O)c1cn2c3c(c(NCCN4CCCC4)c(F)cc3c1=O)Oc1ccccc1-2` (stereo not shown) [compound 1596]: the IC50 was above 15 µM. As to `CN1CCCC1CCNC(=O)c1cn2c3c(c(NCCc4c[nH]c5ccccc45)c(F)cc3c1=O)Oc1cc3ccccc3cc1-2` (stereo not shown) [compound 1666], the IC50 came to 1.75 µM.

As to `O=C(NCCCN1CCOCC1)c1cn2c3c(c(NCCN4CCOCC4)c(F)cc3c1=O)Oc1ccccc1-2` [compound 1604], the IC50 is above 15 µM. Take `O=C(NCCN1CCCC1)c1cn2c3c(c(N4CCN(Cc5ccsc5)CC4)c(F)cc3c1=O)Oc1cc(Cl)ccc1-2` [compound 1831]: the IC50 was determined as 9.8 µM. As to `CN1CCCC1CCNc1ccc2c(=O)c(C(=O)NCCCN3CCOCC3)cn3c2c1Oc1cc2ccccc2cc1-3` (stereo not shown) [compound 1524], the IC50 was 1.75 µM. The same measure, in the same setting: the same measure for `CN(C)CC(C)(C)CNC(=O)c1cn2c3c(c(NCCN4CCCC4)c(F)cc3c1=O)Oc1ccccc1-2` [compound 1600]: above 15 µM.

The experiment is the same for the next values; noted with them: read-out: Stop Data c-Myc μM; concentration at which 50% of the DNA was arrested (arrested:full-length 1:1).
As to `CN1CCCC1CCNc1c(F)cc2c(=O)c(C(=O)NCCCn3ccnc3)cn3c2c1Oc1cc2c(cc1-3)oc1ccccc12` (stereo not shown) [compound 159], the IC50 came out at 1.75 µM. On the same count and under the same terms, the value for `CN(C)CCCCNC(=O)c1cn2c3c(c(N4CC[C@@H](NC(=O)OC(C)(C)C)C4)c(F)cc3c1=O)Oc1cc3ccccc3cc1-2` [compound 66] was 2.5 µM.

As for `CN1CCCC1CCNC(=O)c1cn2c3c(c(NCCCN4CCOCC4)ccc3c1=O)Oc1cc3ccccc3cc1-2` (stereo not shown) [compound 273], the IC50 was found to be 1.75 µM. As to `CN(C)CC(C)(C)CNC(=O)c1cn2c3c(c(NCCCN4CCOCC4)c(F)cc3c1=O)Oc1cc3ccccc3cc1-2` [compound 332], the IC50 amounted to 1 µM. With `CC1(C)CC(NC(=O)c2cn3c4c(c(N5CCC(N)C5)ccc4c2=O)Oc2cc4ccccc4cc2-3)CC(C)(C)N1` (stereo not shown) [compound 558], the IC50 amounted to 0.375 µM. On the same count and under the same terms, the same measure for `CC(C)(C)OC(=O)NC1CCN(c2c(F)c(N)c3c(=O)c(C(=O)NCCN4CCCC4)cn4c3c2Oc2cc3ccccc3cc2-4)C1` (stereo not shown) [compound 224]: 1.75 µM; for `CN(C)CCCCNC(=O)c1cn2c3c(c(NCCCN4CCOCC4)c(F)cc3c1=O)Oc1cc3c(cc1-2)oc1ccccc13` [compound 145]: 1.75 µM. The same measure, in the same setting: the same measure for `O=C(NCCN1CCCC1)c1cn2c3c(c(F)c(F)cc3c1=O)Oc1cc3c(cc1-2)oc1ccccc13` [compound 113]: 1.75 µM; for `CC(C)(C)OC(=O)N[C@@H]1CCN(C(=O)c2cn3c4c(c(NCCN5CCOCC5)c(F)cc4c2=O)Oc2cc4ccccc4cc2-3)C1` [compound 56]: 2.5 µM. With `CCN(CC)C(=O)C1CCCN(c2c(F)cc3c(=O)c(C(=O)NCCC4CCCN4C)cn4c3c2Oc2cc3ccccc3cc2-4)C1` (stereo not shown) [compound 250], the IC50 came out at 1.75 µM. On to `CN1CCN(CCCNc2c(F)cc3c(=O)c(C(=O)NCCCN4CCOCC4)cn4c5cc6c(=O)c7ccccc7c(=O)c6cc5oc2c34)CC1` [compound 492], for which the IC50 was found to be 0.45 µM. Same read-out and setting: the same measure for `CN1CCCC1CCNC(=O)c1cn2c3c(c(N4CCC(N5CCCCC5)CC4)c(F)cc3c1=O)Oc1cc3ccccc3cc1-2` (stereo not shown) [compound 254]: 1.75 µM. Still for that read-out and setting: the same measure for `CN1CCN(CCCNC(=O)c2cn3c4c(c(NCCN5CCCC5)c(F)cc4c2=O)Oc2cc4ccccc4cc2-3)CC1` [compound 71]: 2.5 µM; for `COc1ccc2c(CCNc3c(F)cc4c(=O)c(C(=O)NCCC5CCCN5C)cn5c4c3Oc3cc4ccccc4cc3-5)c[nH]c2c1` (stereo not shown) [compound 288]: 1.75 µM. The same measure, in the same setting: the value for `CN1CCN(CCCNC(=O)c2cn3c4c(c(N5CCC(N)C5)c(F)cc4c2=O)Oc2ccccc2-3)CC1` (stereo not shown) [compound 459] was 0.75 µM. For `CN1CCCC1CCNC(=O)c1cn2c3c(c(NCCCCN4CCCC4)c(F)cc3c1=O)Oc1cc3ccccc3cc1-2` (stereo not shown) [compound 440], the IC50 is 0.75 µM.

On to `CN1CCCC1CCNC(=O)c1cn2c3c(c(N4CCNC(c5cccnc5)C4)c(F)cc3c1=O)Oc1cc3ccccc3cc1-2` (stereo not shown) [compound 265], for which the IC50 came out at 1.75 µM. Consider `CN(C)CCCCNc1c(F)cc2c(=O)c(C(=O)NCCN3CCCC3)cn3c2c1Oc1cc2ccccc2cc1-3` [compound 318], for which the IC50 turned out to be 1 µM. On to `CN1CCCC1CCNc1c(F)cc2c(=O)c(C(=O)N3CCOCC3)cn3c2c1Oc1cc2ccccc2cc1-3` (stereo not shown) [compound 495], for which the IC50 is 0.42 µM. Take `CN1CCCC1CCNC(=O)c1cn2c3c(c(N4CCC(N)C4)c(F)c(N)c3c1=O)Oc1cc3ccccc3cc1-2` (stereo not shown) [compound 234]: the IC50 was 1.75 µM. The same measure, in the same setting: the value for `O=C(O)c1cn2c3c(c(NCCCN4CCOCC4)c(F)cc3c1=O)Oc1cc3c(O)ncnc3cc1-2` [compound 12] was 1.75 µM; that for `CN1CCN(CCCNC(=O)c2cn3c4cc5c(=O)c6ccccc6c(=O)c5cc4oc4c(NCCN5CCCC5)c(F)cc(c2=O)c43)CC1` [compound 491] was 0.45 µM.

On to `N=C(N)NCCCCNC(=O)c1cn2c3c(c(N4CC5CCCNC5C4)c(F)cc3c1=O)Oc1cc3ccccc3cc1-2` (stereo not shown) [compound 328], for which the IC50 stood at 1 µM.

Turning to `NC1CCN(c2ccc3c(=O)c(C(=O)O)cn4c3c2Oc2cc3ccccc3cc2-4)C1` (stereo not shown) [compound 280], the IC50 stood at 1.75 µM.
